Data from patent US11311504B2 (priority 2012, dated 2022).

Test system: rat
Conditions: in vivo

CC(=O)Nc1ccc(O)cc1 [Paracetamol]
timepoint of peak effect: 120 min p. appl.
